Reference: patent US12134620B2 (ARAXES PHARMA LLC, priority 2018, dated 2024)

These molecules were tested against T1, KRAS G12C 1-169, his-tagged protein, GDP-loaded (Homo sapiens, UniProt P01116, G12C) (assay: Biochemical assay: covalent modification of KRAS G12C, analysed by mass spectrometry (RapidFire/TOF or Q-Exactive)). Settings: Modification activity, modification percentage from MS peak intensities.
T1 construct: KRAS G12C 1-169, his-tagged protein, GDP-loaded; His tag
Type: binding
How it was run: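 Covalent adduct formation was quantified by intact-protein mass spectrometry, either TOF or C4 LC-Q Exactive Plus, as percent modified versus unmodified protein after deconvolution. Compounds at 8 or 32 μM final were incubated with 0.5 or 2 μM GDP-bound KRAS G12C(1-169)-His in Hepes/NaCl/MgCl2 buffer before acid quench.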
Note: time not given here.

Structure (SMILES)	Binding %
C=CC(=O)N1CC2(CCN(c3ncnc(-c4cc5cn[nH]c5cc4C)c3C#N)C2)C1 [Compound I-234, 4-(2-acryloyl-2,6-diazaspiro[3.4]octan-6-yl)-6-(6-methyl-1H-indazol-5-yl)pyrimidine-5-carbonitrile]	+ (+ indicates binding activity greater than 0% and up to 50%)
C=CC(=O)N1CC2(CCN(c3ncnc(-c4cc5[nH]ncc5cc4C)c3C#N)C2)C1 [Compound I-235, 4-(2-acryloyl-2,6-diazaspiro[3.4]octan-6-yl)-6-(5-methyl-1H-indazol-6-yl)pyrimidine-5-carbonitrile]	+ (+ indicates binding activity greater than 0% and up to 50%)
C=CC(=O)N1CC2(CCN(c3ncnc(-c4c(C)ccc5[nH]ncc45)c3C#N)CC2)C1 [Compound I-236, 4-(2-acryloyl-2,7-diazaspiro[3.5]nonan-7-yl)-6-(5-methyl-1H-indazol-4-yl)pyrimidine-5-carbonitrile]	+ (+ indicates binding activity greater than 0% and up to 50%)
C=CC(=O)N1CC2(CCN(c3ncnc(-c4c(C)ccc5cn[nH]c45)c3C#N)CC2)C1 [Compound I-237, 4-(2-acryloyl-2,7-diazaspiro[3.5]ononan-7-yl)-6-(6-methyl-1H-indazol-7-yl)pyrimidine-5-carbonitrile]	+ (+ indicates binding activity greater than 0% and up to 50%)
C=CC(=O)N1CC2(CCN(c3ncnc(-c4c(C)ccc5[nH]nc(C6CC6)c45)c3C#N)C2)C1 [Compound I-238, 4-(2-acryloyl-2,6-diazaspiro[3.4]octan-6-yl)-6-(3-cyclopropyl-5-methyl-1H-indazol-4-yl)pyrimidine-5-carbonitrile]	+ (+ indicates binding activity greater than 0% and up to 50%)
C=CC(=O)N1CC2(CCN(c3ncnc(-c4c(C)ccc5[nH]ncc45)c3F)C2)C1 [Compound I-239, 1-(6-(5-fluoro-6-(5-methyl-1H-indazol-4-yl)pyrimidin-4-yl)-2,6-diazaspiro[3.4]octan-2-yl)prop-2-en-1-one]	+ (+ indicates binding activity greater than 0% and up to 50%)
C=CC(=O)N1CC2(CCN(c3ncnc(-c4c(O)cccc4F)c3C#N)CC2)C1 [Compound I-240, 4-(2-acryloyl-2,7-diazaspiro[3.5]nonan-7-yl)-6-(2-fluoro-6-hydroxyphenyl)pyri-midine-5-carbonitrile]	+ (+ indicates binding activity greater than 0% and up to 50%)
C=CC(=O)N1CC2(CCN(c3ncnc(-c4c(C)ccc5[nH]ncc45)c3CC#N)C2)C1 [Compound I-241, 2-(4-(2-acryloyl-2,6-diazaspiro[3.4]octan-6-yl)-6-(5-methyl-1H-indazol-4-yl)pyrimidin-5-yl)acetonitrile]	+ (+ indicates binding activity greater than 0% and up to 50%)
C=CC(=O)N1CC2(CCN(c3ncnc(-c4c(C)ccc5[nH]nc(N)c45)c3C#N)C2)C1 [Compound I-242, 4-(2-acryloyl-2,6-diazaspiro[3.4]octan-6-yl)-6-(3-amino-5-methyl-1H-indazol-4-yl)pyrimidine-5-carbonitrile]	++ (++ indicates binding activity from 50 to 85%)
C=CC(=O)N1CC2(CCN(c3ncnc(-c4c(C)ccc5[nH]ncc45)c3OC)C2)C1 [Compound I-243, 1-(6-(5-methoxy-6-(5-methyl-1H-indazol-4-yl)pyrimidin-4-yl)-2,6-diazaspiro[3.4]octan-2-yl)prop-2-en-1-one]	+ (+ indicates binding activity greater than 0% and up to 50%)
C=CC(=O)N1CC2(CCN(c3ncnc(Oc4ccccc4C(N)=O)c3C#N)C2)C1 [Compound I-244, 2-((6-(2-acryloyl-2,6-diazaspiro[3.4]octan-6-yl)-5-cyanopyrimidin-4-yl)oxy)benzamide]	+ (+ indicates binding activity greater than 0% and up to 50%)
C=CC(=O)N1CC2(CCN(c3ncnc(-c4c(C)ccc5[nH]ncc45)c3O)C2)C1 [Compound I-245, 1-(6-(5-hydroxy-6-(5-methyl-1H-indazol-4-yl)pyrimidin-4-yl)-2,6-diazaspiro[3.4]octan-2-yl)prop-2-en-1-one]	+ (+ indicates binding activity greater than 0% and up to 50%)
C=CC(=O)N1CC2(CCN(c3ncnc(N4CCCC4CO)c3C#N)C2)C1 (stereo not shown) [Compound I-246, 4-(2-acryloyl-2,6-diazaspiro[3.4]octan-6-yl)-6-(2-(hydroxymethyl)pyrro-lidin-1-yl)pyrimidine-5-carbonitrile]	+ (+ indicates binding activity greater than 0% and up to 50%)
C=CC(=O)N1CC2(CCN(c3ncnc(N4CCC[C@@H]4C(N)=O)c3C#N)C2)C1 [Compound I-247, (R)-1-(6-(2-acryloyl-2,6-diazaspiro[3.4]octan-6-yl)-5-cyanopyrimidin-4-yl)pyrrolidine-2-carboxamide]	+ (+ indicates binding activity greater than 0% and up to 50%)
C=CC(=O)N1CC2(CCN(c3ncnc(N4CCC[C@H]4C(N)=O)c3C#N)C2)C1 [Compound I-248, (S)-1-(6-(2-acryloyl-2,6-diazaspiro[3.4]octan-6-yl)-5-cyanopyrimidin-4-yl)pyrrolidine-2-carboxamide]	+ (+ indicates binding activity greater than 0% and up to 50%)
C=CC(=O)N1CC2(CCN(c3ncnc(-c4c(C)ccc5[nH]ncc45)c3C3CC3)C2)C1 [Compound I-249, 1-(6-(5-cyclopropyl-6-(5-methyl-1H-indazol-4-yl)pyrimidin-4-yl)-2,6-diazaspiro[3.4]octan-2-yl)prop-2-en-1-one]	+ (+ indicates binding activity greater than 0% and up to 50%)
C=CC(=O)N1CC2(CCN(c3ncnc(-c4c(C)ccc5[nH]cnc45)c3C#N)C2)C1 [Compound I-250, 4-(2-acryloyl-2,6-diazaspiro[3.4]octan-6-yl)-6-(5-methyl-1H-benzo[d]imidazol-4-yl)pyrimidine-5-carbonitrile]	+ (+ indicates binding activity greater than 0% and up to 50%)
C=CC(=O)N1CC2(CCN(c3ncnc(-c4c(C)ccc5[nH]ncc45)c3CO)C2)C1 [Compound I-251, 1-(6-(5-(hydroxymethyl)-6-(5-methyl-1H-indazol-4-yl)pyrimidin-4-yl)-2,6-diazaspiro[3.4]octan-2-yl)prop-2-en-1-one]	+ (+ indicates binding activity greater than 0% and up to 50%)
C=CC(=O)N1CC2(CCN(c3ccnc(-c4c(C)ccc5[nH]ncc45)c3C#N)C2)C1 [Compound I-252, 4-(2-acryloyl-2,6-diazaspiro[3.4]octan-6-yl)-2-(5-methyl-1H-indazol-4-yl)nicotinonitrile]	+ (+ indicates binding activity greater than 0% and up to 50%)
C=CC(=O)N1CC2(CCN(c3ncnc(-c4c(C)ccc5[nH]ncc45)c3C(N)=O)C2)C1 [Compound I-253, 4-(2-acryloyl-2,6-diazaspiro[3.4]octan-6-yl)-6-(5-methyl-1H-indazol-4-yl)pyrimidine-5-carboxamide]	+ (+ indicates binding activity greater than 0% and up to 50%)
C=CC(=O)N1CC2(CCN(c3ncnc(-c4c(C)ccc5[nH]ncc45)c3C(=O)N(C)C)C2)C1 [Compound I-254, 4-(2-acryloyl-2,6-diazaspiro[3.4]octan-6-yl)-N,N-dimethyl-6-(5-methyl-1H-indazol-4-yl)pyrimidine-5-carboxamide]	+ (+ indicates binding activity greater than 0% and up to 50%)
C=CC(=O)N1CC2(CCN(c3ncnc(Oc4cccc(C(N)=O)c4)c3C#N)C2)C1 [Compound I-255, 3-((6-(2-acryloyl-2,6-diazaspiro[3.4]octan-6-yl)-5-cyanopyrimidin-4-yl)oxy)benzamide]	+ (+ indicates binding activity greater than 0% and up to 50%)
C=CC(=O)N1CC2(CCN(c3cncc(-c4c(C)ccc5[nH]ncc45)c3C#N)C2)C1 [Compound I-256, 3-(2-acryloyl-2,6-diazaspiro[3.4]octan-6-yl)-5-(5-methyl-1H-indazol-4-yl)isonicotinonitrile]	+++ (+++ indicates binding activity greater than 85%)
C=CC(=O)N1CC2(CCN(c3ncnc(-c4c(C)ccc5[nH]ncc45)c3C)C2)C1 [Compound I-257, 1-(6-(5-methyl-6-(5-methyl-1H-indazol-4-yl)pyrimidin-4-yl)-2,6-diazaspiro[3.4]octan-2-yl)prop-2-en-1-one]	+ (+ indicates binding activity greater than 0% and up to 50%)
C=CC(=O)N1CC2(CCN(c3ncnc(-c4c(C)ccc5[nH]ncc45)c3CN(C)C)C2)C1 [Compound I-258, 1-(6-(5-((dimethylamino)meth-yl)-6-(5-methyl-1H-indazol-4-yl)pyrimidin-4-yl)-2,6-diazaspiro[3.4]octan-2-yl)prop-2-en-1-one]	+ (+ indicates binding activity greater than 0% and up to 50%)
C=CC(=O)N1CC2(CCN(c3ncnc(-c4c(C)ccc5[nH]ncc45)c3CC(F)(F)F)C2)C1 [Compound I-259, 1-(6-(6-(5-methyl-1H-indazol-4-yl)-5-(2,2,2-trifluoroethyl)pyrimi-din-4-yl)-2,6-diazaspiro[3.4]octan-2-yl)prop-2-en-1-one]	+ (+ indicates binding activity greater than 0% and up to 50%)
C=CC(=O)N1CC2(CCN(c3ncnc(-c4c(C)ccc5[nH]ncc45)c3C(F)(F)F)C2)C1 [Compound I-260, 1-(6-(6-(5-methyl-1H-indazol-4-yl)-5-(trifluoromethyl)pyri-midin-4-yl)-2,6-diazaspiro[3.4]octan-2-yl)prop-2-en-1-one]	+ (+ indicates binding activity greater than 0% and up to 50%)
C=CC(=O)N1CC2(CCN(c3ncnc(-c4c(C)ccc5[nH]ncc45)c3N3CCCC3)C2)C1 [Compound I-261, 1-(6-(6-(5-methyl-1H-indazol-4-yl)-5-(pyrrolidin-1-yl)pyrimidin-4-yl)-2,6-diazaspiro[3.4]octan-2-yl)prop-2-en-1-one]	+ (+ indicates binding activity greater than 0% and up to 50%)
